Among the data in PubChem BioAssay (NCI) are GI50 and TGI values, retold here.

Some test systems named below: PC-3 prostate; UACC-62 melanoma; HS 578T breast; OVCAR-5 ovarian; NCI-H460 lung; NCI-H226 lung; HL-60(TB) leukemia; M14 melanoma; MDA-MB-231 breast; HT29 colon.
Common to all, as to experiment: growth of human tumour cells (NCI), 48 h

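Compound exposure: 48 hours, 5 concentrations, 96-well plates. GI50 marks 50% less growth. TGI is the concentration that stops growth completely.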 Bounds are passed on as bounds.

As for `COc1cc2c(cc1OC)C(Sc1ccc(SC)cc1)c1c(nc(N)c(C#N)c1N)O2` (stereo not given), the GI50 was 1.63 µM with PC-3 prostate; 1.23 µM with UACC-62 melanoma; 2.01 µM in the experiment with HS 578T breast; 1.87 µM in the experiment on OVCAR-5 ovarian; 2.08 µM in the experiment on NCI-H460 lung; 1.64 µM in the experiment with NCI-H226 lung. Moreover, the figures for the GI50 with HL-60(TB) leukemia, in the experiment with M14 melanoma and in the experiment with MDA-MB-231 breast were 1.51 µM, 1.74 µM and 1.55 µM, respectively. Also, the TGI in the experiment with PC-3 prostate was 3.06 µM; with UACC-62 melanoma, 2.51 µM; with HS 578T breast, 4.52 µM; in the experiment with OVCAR-5 ovarian it was 3.5 µM; with NCI-H460 lung, 4.49 µM; in the experiment with NCI-H226 lung it was 3.04 µM. In addition, the TGI is 3.59 µM in the experiment with HL-60(TB) leukemia, 3.24 µM in the experiment on M14 melanoma and 2.92 µM with MDA-MB-231 breast.
Turning to `COc1cc(OC)c2nccc(NCCCN(C)C)c2c1[N+](=O)[O-]`, the TGI in the experiment on HT29 colon, in the experiment with PC-3 prostate, with UACC-62 melanoma, in the experiment on HS 578T breast, in the experiment on OVCAR-5 ovarian and in the experiment on NCI-H460 lung was greater than 100 µM throughout. In addition, the TGI in the experiment with HL-60(TB) leukemia, in the experiment on M14 melanoma and in the experiment on MDA-MB-231 breast was greater than 100 µM each time.
On to `Cc1cn(C2C=CC(CO)O2)c(=O)[nH]c1=O` (stereo not given), for which the TGI in the experiment with HT29 colon, in the experiment on PC-3 prostate, in the experiment with UACC-62 melanoma, in the experiment with HS 578T breast, in the experiment on OVCAR-5 ovarian and in the experiment on NCI-H226 lung was greater than 1000 µM in each case. Moreover, the TGI with HL-60(TB) leukemia, in the experiment with M14 melanoma and in the experiment with MDA-MB-231 breast was greater than 1000 µM in each case.
As for `COc1ccc(S(=O)(=O)NC2=NCCN2C(=S)SN2CCn3c2nsc3=S)cc1`, the GI50 was 32.4 µM in the experiment with HT29 colon; 17.5 µM in the experiment on PC-3 prostate; 12.2 µM in the experiment with UACC-62 melanoma; 20.8 µM in the experiment on HS 578T breast; 17.3 µM in the experiment on OVCAR-5 ovarian; 17.1 µM with NCI-H460 lung. Besides, the values for the GI50 in the experiment with NCI-H226 lung, in the experiment with M14 melanoma and in the experiment with MDA-MB-231 breast were 15.6 µM, 14.9 µM and 15 µM, respectively. Besides, the TGI is greater than 100 µM in the experiment with HT29 colon; 40.1 µM with PC-3 prostate; 27.4 µM in the experiment on UACC-62 melanoma; 54.2 µM in the experiment with HS 578T breast; 33.3 µM in the experiment on OVCAR-5 ovarian; 44.2 µM in the experiment with NCI-H460 lung. The TGI in the experiment with NCI-H226 lung stood at 33.2 µM; in the experiment with M14 melanoma, 31 µM; in the experiment with MDA-MB-231 breast, 36.9 µM.
Regarding `COc1cc(-c2cc(-c3ccc(Nc4ccnc5cc(Cl)ccc45)cc3)nc(N3CCOCC3)n2)cc(OC)c1OC`, the GI50 was 1.97 µM in the experiment on HT29 colon; 1.78 µM in the experiment on PC-3 prostate; 1.98 µM in the experiment on UACC-62 melanoma; 2.25 µM in the experiment on HS 578T breast; 2.19 µM in the experiment on OVCAR-5 ovarian; 1.87 µM with NCI-H460 lung. In addition, the GI50 with NCI-H226 lung is 11.4 µM; in the experiment with HL-60(TB) leukemia, 5.99 µM; in the experiment on MDA-MB-231 breast, 1.81 µM. Also, the TGI with HT29 colon was found to be 4.61 µM; in the experiment with PC-3 prostate, 3.69 µM; in the experiment on UACC-62 melanoma, 3.83 µM; in the experiment with HS 578T breast, 5.35 µM; in the experiment with OVCAR-5 ovarian, 4.72 µM; in the experiment on NCI-H460 lung, 3.89 µM. The TGI in the experiment with NCI-H226 lung is 38.2 µM; in the experiment on HL-60(TB) leukemia, 82.1 µM; with MDA-MB-231 breast, 4 µM.
Turning to `COc1ccc2c(c1)CC[C@@H]1[C@@H]2CC[C@]2(C)[C@@H](NC(=O)/C=C/c3ccc(O)c(O)c3)CC[C@@H]12`, the GI50 is 4.74 µM in the experiment with HT29 colon; 2.17 µM in the experiment on PC-3 prostate; 2.12 µM in the experiment with UACC-62 melanoma; 18.5 µM in the experiment on HS 578T breast; 6.37 µM in the experiment with OVCAR-5 ovarian; 2.7 µM with NCI-H460 lung. The GI50 was 2.34 µM in the experiment with NCI-H226 lung, 2.26 µM with M14 melanoma and 2.6 µM with MDA-MB-231 breast. The TGI was greater than 100 µM with HT29 colon; 12.5 µM with PC-3 prostate; 6.19 µM in the experiment on UACC-62 melanoma; 58.4 µM in the experiment with HS 578T breast; 20.7 µM in the experiment on OVCAR-5 ovarian; 9.93 µM in the experiment on NCI-H460 lung. The TGI with NCI-H226 lung is 6.45 µM; with M14 melanoma, 6.98 µM; in the experiment on MDA-MB-231 breast it was 15.2 µM.
`CCOC(=O)c1c(C)n(Cc2ccccc2)c2c1cc(O)c1[nH]c(Cc3ccccc3)nc12`: the GI50 is 6.79 µM in the experiment on HT29 colon; 7.88 µM in the experiment with PC-3 prostate; 23.8 µM with UACC-62 melanoma; 9.53 µM with HS 578T breast; greater than 22.7 µM in the experiment on OVCAR-5 ovarian; 4.23 µM in the experiment on NCI-H460 lung. Moreover, the GI50 in the experiment with NCI-H226 lung is 12.1 µM; in the experiment on M14 melanoma it was greater than 50.7 µM; with MDA-MB-231 breast, 20.1 µM. Further, the TGI was greater than 34.4 µM in the experiment with HT29 colon; greater than 100 µM with PC-3 prostate; greater than 100 µM in the experiment with UACC-62 melanoma; greater than 57.8 µM in the experiment with HS 578T breast; greater than 61 µM in the experiment on OVCAR-5 ovarian; greater than 100 µM in the experiment with NCI-H460 lung. In addition, the TGI in the experiment on NCI-H226 lung is greater than 75.9 µM; in the experiment with M14 melanoma, greater than 100 µM; with MDA-MB-231 breast it was greater than 85.9 µM.
On to `Clc1ccc(-c2csc(Nc3cccc(-c4csc(-c5ccccc5)n4)c3)n2)cc1`, for which the GI50 in the experiment with PC-3 prostate was 5.71 µM; with UACC-62 melanoma it was 6.24 µM; with HS 578T breast, 20.6 µM; in the experiment with NCI-H460 lung, 10.5 µM; with HL-60(TB) leukemia, 17.2 µM; in the experiment with M14 melanoma, 11.6 µM. For the same compound, the GI50 in the experiment with MDA-MB-231 breast was 6.77 µM. Besides, the TGI with PC-3 prostate is 17 µM; in the experiment with UACC-62 melanoma it was 13.6 µM; in the experiment on HS 578T breast it was greater than 50 µM; in the experiment with NCI-H460 lung it was 27.1 µM; with HL-60(TB) leukemia, 40.9 µM; in the experiment on M14 melanoma, 24.1 µM. This compound displayed a TGI with MDA-MB-231 breast of 15.3 µM.
Regarding `Oc1ccc(O)c(-c2cc(-c3ccc(Cl)cc3)nn2-c2ccccc2)c1`, the GI50 in the experiment on PC-3 prostate is 3.19 µM; with UACC-62 melanoma, 2.63 µM; in the experiment with HS 578T breast it was 3.43 µM; with OVCAR-5 ovarian, 3.11 µM; with NCI-H460 lung, 3.77 µM; in the experiment on NCI-H226 lung, 5.97 µM. In addition, the values for the GI50 with HL-60(TB) leukemia, in the experiment with M14 melanoma and with MDA-MB-231 breast were 5.71 µM, 2.89 µM and 2.33 µM, respectively. In addition, the TGI in the experiment with PC-3 prostate was 13.1 µM; with UACC-62 melanoma, 7.88 µM; in the experiment on HS 578T breast, 29.8 µM; in the experiment on OVCAR-5 ovarian it was 10.7 µM; in the experiment on NCI-H460 lung, greater than 100 µM; with NCI-H226 lung it was 24.3 µM. Also, the TGI with HL-60(TB) leukemia was determined as 64.8 µM; in the experiment on M14 melanoma it was 6.53 µM; with MDA-MB-231 breast it was 6.82 µM.
